The structures appear in SMILES notation.

This experiment has as its target T1, human V1a receptor (Homo sapiens, UniProt P37288).
T1 construct: expressed in transfected cells; host or cells: HEK293 cells, transiently transfected; membranes prepared
Description: human V1a receptor binding (3H-Vasopressin SPA, HEK293 membranes). The note with it: 3H-Vasopressin displacement, membranes of HEK293 cells transiently transfected with human V1a; Ki by Cheng-Prussoff. On the procedure:
The human V1a receptor was cloned by RT-PCR from total human liver RNA. The coding sequence was subcloned in an expression vector after sequencing to confirm the identity of the amplified sequence. […] Cell membranes were prepared from HEK293 cells transiently transfected with the expression vector and grown in 20 liter fermenters with the following protocol.
50 g of cells are resuspended in 30 ml freshly prepared ice cold Lysis buffer (50 mM HEPES, 1 mM EDTA, 10 mM MgCl2 adjusted to pH=7.4+complete cocktail of protease inhibitor (Roche Diagnostics)). Homogenized with Polytron for 1 min and sonicated on ice for 2×2 minutes at 80% intensity (Vibracell sonicator). The preparation is centrifuged 20 min at 500 g at 4° C., the pellet is discarded and the supernatant centrifuged 1 hour at 43'000 g at 4° C. (19'000 rpm). The pellet is resuspended in 12.5 ml Lysis buffer+12.5 ml Sucrose 20% and homogenized using a Polytron for 1-2 min. The protein concentration is determined by the Bradford method and aliquots are stored at −80° C. until use. For binding studies 60 mg Yttrium silicate SPA beads (Amersham) are mixed with an aliquot of membrane in binding buffer (50 mM Tris, 120 mM NaCl, 5 mM KCl, 2 mM CaCl2, 10 mM MgCl2) for 15 minutes with mixing. 50 ul of bead/membrane mixture is then added to each well of a 96 well plate, followed by 50 ul of 4 nM 3H-Vasopressin (American Radiolabeled Chemicals). For total binding measurement 100 ul of binding buffer are added to the respective wells, for non-specific binding 100 ul of […] cold vasopressin and for compound testing 100 ul of a serial dilution of each compound in 2% DMSO. The plate is incubated 1 h at room temperature, centrifuged 1 min at 1000 g and counted on a Packard Top-Count. Non-specific binding counts are subtracted from each well and data is normalized to the maximum specific binding set at 100%. To calculate an IC 50 the curve is fitted using a non-linear regression model (XLfit) and the Ki is calculated using the Cheng-Prussoff equation.

T1 sequence (P37288 whole entry): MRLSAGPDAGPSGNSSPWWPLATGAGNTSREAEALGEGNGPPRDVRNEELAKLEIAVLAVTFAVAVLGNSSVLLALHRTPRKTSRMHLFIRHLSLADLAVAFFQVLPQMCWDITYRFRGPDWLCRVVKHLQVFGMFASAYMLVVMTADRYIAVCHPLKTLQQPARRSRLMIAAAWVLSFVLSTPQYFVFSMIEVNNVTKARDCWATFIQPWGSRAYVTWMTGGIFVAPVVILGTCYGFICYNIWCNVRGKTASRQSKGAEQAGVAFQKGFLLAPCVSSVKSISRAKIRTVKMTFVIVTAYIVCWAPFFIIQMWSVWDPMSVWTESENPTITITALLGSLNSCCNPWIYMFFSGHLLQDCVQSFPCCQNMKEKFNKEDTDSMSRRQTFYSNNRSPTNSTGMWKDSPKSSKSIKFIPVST

With `O=C1Nc2ccccc2C2(CCN(C(=O)c3c[nH]c4cc(Cl)ccc34)CC2)O1` [Example 1, 1′-[(6-Chloro-1H-indol-3-yl)carbonyl]spiro[3,1-benzoxazine-4,4′-piperidin]-2(1H)-one], the Ki is 32 nM.

In turn, `O=C1CC2(CCN(C(=O)c3c[nH]c4ccccc34)CC2)c2cc(Br)ccc2N1` [Example 2, 6′-Bromo-1-(1H-indol-3-ylcarbonyl)-1′H-spiro[piperidine-4,4′-quinolin]-2′(3′H)-one] gave a Ki of 2050 nM.

With `CN(C)CCN1C(=O)OC2(CCN(C(=O)c3c[nH]c4cc(Cl)ccc34)CC2)c2cc(Cl)ccc21` [Example 3, 6-Chloro-1′-[(6-chloro-1H-indol-3-yl)carbonyl]-1-[2-(dimethylamino)ethyl]spiro[3,1-benzoxazine-4,4′-piperidin]-2(1H)-one], the affinity, expressed as Ki, was 402 nM.

In turn, `O=C1Nc2ccc(Cl)cc2C2(CCN(C(=O)c3c[nH]c4cc(Cl)ccc34)CC2)O1` [Example 4, 6-Chloro-1′-[(6-chloro-1H-indol-3-yl)carbonyl]spiro[3,1-benzoxazine-4,4′-piperidin]-2(1H)-one] yielded a Ki of 310 nM.

`O=C1Nc2ccccc2C2(CCN(C(=O)c3cn(-c4cc(F)cc(F)c4)c4cc(Cl)ccc34)CC2)O1` [Example 5, 1′-{[6-Chloro-1-(3,5-difluorophenyl)-1H-indol-3-yl]carbonyl}spiro[3,1-benzoxazine-4,4′-piperidin]-2(1H)-one] registered an inhibitory constant (Ki) of 130 nM.

In turn, `O=C1Nc2ccccc2C2(CCN(C(=O)c3cn(C(=O)c4cccc(F)c4)c4cc(Cl)ccc34)CC2)O1` [Example 6, 1′-{[6-Chloro-1-(3-fluorobenzoyl)-1H-indol-3-yl]carbonyl}spiro[3,1-benzoxazine-4,4′-piperidin]-2(1H)-one] returned an inhibitory constant (Ki) of 118 nM.

As to `O=C1Nc2ccccc2C2(CCN(C(=O)c3cn(C(=O)c4ccccc4F)c4cc(Cl)ccc34)CC2)O1` [Example 7, 1′-{[6-Chloro-1-(2-fluorobenzoyl)-1H-indol-3-yl]carbonyl}spiro[3,1-benzoxazine-4,4′-piperidin]-2(1H)-one], the Ki was 117 nM.

With `O=C1Nc2ccccc2C2(CCN(C(=O)c3cn(C(=O)c4cccc(F)c4F)c4cc(Cl)ccc34)CC2)O1` [Example 8, 1′-{[6-Chloro-1-(2,3-difluorobenzoyl)-1H-indol-3-yl]carbonyl}spiro[3,1-benzoxazine-4,4′-piperidin]-2(1H)-one], the affinity corresponds to a Ki of 136 nM.

On to `O=C1Nc2ccccc2C2(CCN(C(=O)c3cn(Cc4cc(F)cc(F)c4)c4cc(Cl)ccc34)CC2)O1` [Example 10, 1′-{[6-Chloro-1-(3,5-difluorobenzyl)-1H-indol-3-yl]carbonyl}spiro[3,1-benzoxazine-4,4′-piperidin]-2(1H)-one], for which the inhibition constant Ki came out at 3 nM.

`O=C1Nc2ccccc2C2(CCN(C(=O)c3cn(Cc4cccc(F)c4)c4cc(Cl)ccc34)CC2)O1` [Example 11, 1′-{[6-Chloro-1-(3-fluorobenzyl)-1H-indol-3-yl]carbonyl}spiro[3,1-benzoxazine-4,4′-piperidin]-2(1H)-one] registered an inhibition constant (Ki) of 5 nM.

Compound `O=C1Nc2ccccc2C2(CCN(C(=O)c3cn(CC(=O)c4cccc(F)c4)c4cc(Cl)ccc34)CC2)O1` [Example 12, 1′-({6-Chloro-1-[2-(3-fluorophenyl)-2-oxoethyl]-1H-indol-3-yl}carbonyl)spiro[3,1-benzoxazine-4,4′-piperidin]-2(1H)-one] displayed a Ki of 7 nM.

For the compound `O=C1Nc2ccccc2C2(CCN(C(=O)c3cn(CC(=O)c4ccc(F)c(F)c4)c4cc(Cl)ccc34)CC2)O1` [Example 13, 1′-({6-Chloro-1-[2-(3,4-difluorophenyl)-2-oxoethyl]-1H-indol-3-yl}carbonyl)spiro[3,1-benzoxazine-4,4′-piperidin]-2(1H)-one], the Ki is 8 nM.

`O=C1Nc2ccccc2C2(CCN(C(=O)c3cn(CC(=O)N4CCCCC4)c4cc(Cl)ccc34)CC2)O1` [Example 15, 1′-{[6-Chloro-1-(2-oxo-2-piperidin-1-ylethyl)-1H-indol-3-yl]carbonyl}spiro[3,1-benzoxazine-4,4′-piperidin]-2(1H)-one] showed a Ki of 7 nM.

Regarding `O=C1Nc2ccccc2C2(CCN(C(=O)c3cn(CC(=O)N4CCOCC4)c4cc(Cl)ccc34)CC2)O1` [Example 16, 1′-{[6-Chloro-1-(2-morpholin-4-yl-2-oxoethyl)-1H-indol-3-yl]carbonyl}spiro[3,1-benzoxazine-4,4′-piperidin]-2(1H)-one], the Ki came out at 20 nM.

Consider `CN(C)C(=O)Cn1cc(C(=O)N2CCC3(CC2)OC(=O)Nc2ccccc23)c2ccc(Cl)cc21` [Example 17, 2-{6-Chloro-3-[(2-oxo-1,2-dihydro-1′H-spiro[3,1-benzoxazine-4,4′-piperidin]-1′-yl)carbonyl]-1H-indol-1-yl}-N,N-dimethylacetamide], for which the inhibitory constant (Ki) was 5.7 nM.

The compound `CCN(CC)C(=O)Cn1cc(C(=O)N2CCC3(CC2)OC(=O)Nc2ccccc23)c2ccc(Cl)cc21` [Example 18, 2-{6-Chloro-3-[(2-oxo-1,2-dihydro-1H-spiro[3,1-benzoxazine-4,4′-piperidin]-1′-yl)carbonyl]-1H-indol-1-yl}-N,N-diethylacetamide] yielded an inhibitory constant (Ki) of 6 nM.

`O=C1Nc2ccccc2C2(CCN(C(=O)c3cn(C(=O)N4CCCCC4)c4cc(Cl)ccc34)CC2)O1` [Example 19, 1′-{[6-Chloro-1-(piperidin-1-ylcarbonyl)-1H-indol-3-yl]carbonyl}spiro[3,1-benzoxazine-4,4′-piperidin]-2(1H)-one] returned a Ki of 46 nM.

Regarding `CC(C)(C)OC(=O)Cn1cc(C(=O)N2CCC3(CC2)OC(=O)Nc2ccccc23)c2ccc(Cl)cc21` [Example 20, tert-Butyl {6-chloro-3-[(2-oxo-1,2-dihydro-1′H-spiro[3,1-benzoxazine-4,4′-piperidin]-1′-yl)carbonyl]-1H-indol-1-yl}acetate], the Ki came out at 10 nM.

`O=C1Nc2ccccc2C2(CCN(C(=O)c3cn(C(=O)c4cc(F)cc(F)c4)c4cc(Cl)ccc34)CC2)O1` [Example 21, 1′-{[6-Chloro-1-(3,5-difluorobenzoyl)-1H-indol-3-yl]carbonyl}spiro[3,1-benzoxazine-4,4′-piperidin]-2(1H)-one] had an inhibition constant Ki of 88 nM.

As for `O=C1Nc2ccccc2C2(CCN(C(=O)c3cn(CC(=O)c4cc(F)cc(F)c4)c4cc(Cl)ccc34)CC2)O1` [Example 22, 1′-({6-Chloro-1-[2-(3,5-difluorophenyl)-2-oxoethyl]-1H-indol-3-yl}carbonyl)spiro[3,1-benzoxazine-4,4′-piperidin]-2(1H)-one], the inhibition constant Ki is 200 nM.

Compound `O=C1Nc2ccccc2C2(CCN(C(=O)c3cn(CC(=O)c4ccccc4F)c4cc(Cl)ccc34)CC2)O1` [Example 23, 1′-({6-Chloro-1-[2-(2-fluorophenyl)-2-oxoethyl]-1H-indol-3-yl}carbonyl)spiro[3,1-benzoxazine-4,4′-piperidin]-2(1H)-one] returned a Ki of 2 nM.

For `N#CCCn1cc(C(=O)N2CCC3(CC2)OC(=O)Nc2ccccc23)c2ccc(Cl)cc21` [Example 24, 3-{6-Chloro-3-[(2-oxo-1,2-dihydro-1′H-spiro[3,1-benzoxazine-4,4′-piperidin]-1′-yl)carbonyl]-1H-indol-1-yl}propanenitrile], the Ki is 10 nM.

Consider `CC(C#N)n1cc(C(=O)N2CCC3(CC2)OC(=O)Nc2ccccc23)c2ccc(Cl)cc21` (centres unmarked) [Example 25, 2-{6-Chloro-3-[(2-oxo-1,2-dihydro-1′H-spiro[3,1-benzoxazine-4,4′-piperidin]-1′-yl)carbonyl]-1H-indol-1-yl}propanenitrile], for which the inhibition constant (Ki) turned out to be 28 nM.

Compound `O=C1Nc2ccccc2C2(CCN(C(=O)c3cn(CC(=O)c4ccccn4)c4cc(Cl)ccc34)CC2)O1` [Example 26, 1′-{[6-Chloro-1-(2-oxo-2-pyridin-2-ylethyl)-1H-indol-3-yl]carbonyl}spiro[3,1-benzoxazine-4,4′-piperidin]-2(1H)-one] registered a Ki of 8 nM.

Turning to `Cc1oc(-c2ccccc2)nc1C(=O)Cn1cc(C(=O)N2CCC3(CC2)OC(=O)Nc2ccccc23)c2ccc(Cl)cc21` [Example 27, 1′-({6-Chloro-1-[2-(5-methyl-2-phenyl-1,3-oxazol-4-yl)-2-oxoethyl]-1H-indol-3-yl}carbonyl)spiro[3,1-benzoxazine-4,4′-piperidin]-2(1H)-one], the inhibitory constant (Ki) is 29 nM.

`CNC(=O)Cn1cc(C(=O)N2CCC3(CC2)CNC(=O)c2ccccc23)c2ccc(Cl)cc21` [Example 28, 2-{6-chloro-3-[(1-oxo-2,3-dihydro-1H, 1′H-spiro[isoquinoline-4,4′-piperidin]-1′-yl)carbonyl]-1H-indol-1-yl}-N-methylacetamide] registered a Ki of 166 nM.

Values taken from patent US7351706B2, “Indol-3-yl-carbonyl-spiro-piperidine derivatives” (Hoffmann-La Roche Inc., priority 2006, dated 2008).
